Each structure is given as a SMILES string.

This test can be described thus: DPPH radical scavenging assay. The conditions noted are these: 0.03 mg/mL, after 30 min. As to the method: The DPPH (1,1-diphenyl-2-picrylhydrazyl radical) assay measures the hydrogen donation ability of the antioxidant to convert the stable DPPH free radical into 1,1-diphenyl-2-(2,4,6-trinitrophenyl)-hydrazine. After radical reaction with the compounds, a decrease in the absorbance was detected at 517 nm, which is accompanied by a change of color from violet to light-yellow. The target compounds were dissolved in methanol to make 1 mg/mL stock solutions, which were diluted to five concentrations as test samples. Ascorbic acid was used as a standard, and the experiment was carried out on 96-well plates. The DPPH solution was prepared at a 100 µM concentration. For each test, 100 µL of DPPH solution was added to 100 µL of methanolic solution containing the tested derivatives, and the absorbance was determined at different time points. All the measurements were carried out in triplicate. Results were expressed as the percentage of the radical scavenged, calculated using the following formula:(1) % DPPH radical scavenging=Acontrol − Asample/Acontrol × 100 where Acontrol refers to the absorbance of the negative control, and Asample refers to the absorbance of the tested compounds. Results are expressed as a percentage of DPPH radical scavenged ± SEM.
. Ascorbic acid and Trolox were used as radical scavenger gold standards. […]. No correlation was found for either structure–radical scavenging activity or antitumor–radical scavenging activity, except for compound I.2f, one of the selected cytotoxic agents. To further confirm this antioxidant activity, three compounds (I.1e, I.1g and I.2i) were also evaluated as DPPH radical scavengers at a lower concentration of 0.003 mg/mL (Figure 3B).
(The DPPH test is a chemical assay of radical scavenging.)

For `N#C[Se]c1ccc(NC(=O)c2ccc(C(F)(F)F)cc2)cc1` [I.2f], the DPPH activity inhibition result is “greater than 35%”.

(Values after paper PMC8069832, “New Amides and Phosphoramidates Containing Selenium: Studies on Their Cytotoxicity and Antioxidant Activities in Breast Cancer” (Antioxidants, 2021).)
